According to PMC4504433 (ACS Chemical Biology, 2014):

Test system: H3K79me2 in A431 cells
Experiment: High content imaging assay of H3K79me2
Details: 4 days

SMILES: Nc1ncnc2c1ncn2[C@@H]1O[C@H](CSCC[C@H](N)C(=O)O)[C@@H](O)[C@H]1O [SAH]
- reduction of H3K79 methylation, result in words: ineffective
